Experimental data: PMC4687028 (Journal of medicinal chemistry, 2015)

Tests used:
[1] = target: T1, recombinant human aromatase (CYP19) (Homo sapiens, UniProt P11511); assay: Inhibition of recombinant human aromatase; format: biochemical
T1 sequence (P11511 1-503): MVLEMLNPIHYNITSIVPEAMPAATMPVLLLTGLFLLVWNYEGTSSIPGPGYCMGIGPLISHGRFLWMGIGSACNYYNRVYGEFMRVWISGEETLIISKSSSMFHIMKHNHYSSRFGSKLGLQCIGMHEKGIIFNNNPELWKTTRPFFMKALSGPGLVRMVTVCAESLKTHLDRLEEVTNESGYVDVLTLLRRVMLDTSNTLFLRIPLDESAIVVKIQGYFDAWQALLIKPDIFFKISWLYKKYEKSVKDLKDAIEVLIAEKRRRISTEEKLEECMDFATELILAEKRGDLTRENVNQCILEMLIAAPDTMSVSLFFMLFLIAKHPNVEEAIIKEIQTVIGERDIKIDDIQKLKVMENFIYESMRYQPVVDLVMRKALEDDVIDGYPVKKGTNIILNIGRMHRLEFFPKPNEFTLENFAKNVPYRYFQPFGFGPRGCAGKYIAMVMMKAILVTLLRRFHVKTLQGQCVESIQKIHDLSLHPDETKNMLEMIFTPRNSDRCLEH

Recombinant CYP2A6 = target: T2, Recombinant CYP2A6 (Homo sapiens, UniProt P11509); assay: Inhibition of recombinant CYP2A6; format: biochemical
T2 sequence (P11509 1-494): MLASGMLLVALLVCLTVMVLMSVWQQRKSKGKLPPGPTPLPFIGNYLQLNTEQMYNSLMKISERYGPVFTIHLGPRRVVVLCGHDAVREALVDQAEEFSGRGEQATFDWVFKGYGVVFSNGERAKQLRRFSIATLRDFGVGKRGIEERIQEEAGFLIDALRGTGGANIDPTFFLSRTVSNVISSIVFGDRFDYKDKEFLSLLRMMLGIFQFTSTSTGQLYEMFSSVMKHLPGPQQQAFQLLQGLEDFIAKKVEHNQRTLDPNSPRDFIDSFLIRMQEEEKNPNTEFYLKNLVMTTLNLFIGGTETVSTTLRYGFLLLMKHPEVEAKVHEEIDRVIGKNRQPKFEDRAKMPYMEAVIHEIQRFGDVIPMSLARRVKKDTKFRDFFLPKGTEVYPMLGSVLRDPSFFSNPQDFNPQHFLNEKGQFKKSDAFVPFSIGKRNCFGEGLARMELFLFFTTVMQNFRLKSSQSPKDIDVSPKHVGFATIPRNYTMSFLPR

recombinant human ER-α = target: T3, recombinant human ER-α (Homo sapiens, UniProt P03372); assay: ER-α competitor binding assay, fluorescence polarization, displacement of ES2; settings: at the concentration of 100,000 nM
T3 sequence (P03372 1-595): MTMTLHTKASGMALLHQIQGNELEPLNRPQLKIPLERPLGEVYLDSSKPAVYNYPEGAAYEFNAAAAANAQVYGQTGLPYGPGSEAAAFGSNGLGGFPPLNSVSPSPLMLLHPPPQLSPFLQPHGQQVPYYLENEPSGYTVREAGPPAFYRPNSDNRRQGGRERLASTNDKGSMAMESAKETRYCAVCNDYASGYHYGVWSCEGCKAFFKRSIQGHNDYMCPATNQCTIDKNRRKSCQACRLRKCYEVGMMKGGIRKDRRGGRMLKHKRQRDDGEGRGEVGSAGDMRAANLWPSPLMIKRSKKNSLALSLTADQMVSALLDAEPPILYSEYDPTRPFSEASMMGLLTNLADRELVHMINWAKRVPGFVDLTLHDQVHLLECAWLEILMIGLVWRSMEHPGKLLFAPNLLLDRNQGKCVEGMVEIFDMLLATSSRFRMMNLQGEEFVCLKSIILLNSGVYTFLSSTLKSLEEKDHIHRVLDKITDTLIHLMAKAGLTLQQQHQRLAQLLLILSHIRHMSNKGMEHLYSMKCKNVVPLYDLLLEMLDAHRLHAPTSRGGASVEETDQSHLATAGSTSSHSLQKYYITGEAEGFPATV

Recombinant CYP2D6 = Recombinant CYP2D6 (Homo sapiens, UniProt P10635); settings: previously published; cited from earlier work
Chain of Recombinant CYP2D6 (P10635 whole entry): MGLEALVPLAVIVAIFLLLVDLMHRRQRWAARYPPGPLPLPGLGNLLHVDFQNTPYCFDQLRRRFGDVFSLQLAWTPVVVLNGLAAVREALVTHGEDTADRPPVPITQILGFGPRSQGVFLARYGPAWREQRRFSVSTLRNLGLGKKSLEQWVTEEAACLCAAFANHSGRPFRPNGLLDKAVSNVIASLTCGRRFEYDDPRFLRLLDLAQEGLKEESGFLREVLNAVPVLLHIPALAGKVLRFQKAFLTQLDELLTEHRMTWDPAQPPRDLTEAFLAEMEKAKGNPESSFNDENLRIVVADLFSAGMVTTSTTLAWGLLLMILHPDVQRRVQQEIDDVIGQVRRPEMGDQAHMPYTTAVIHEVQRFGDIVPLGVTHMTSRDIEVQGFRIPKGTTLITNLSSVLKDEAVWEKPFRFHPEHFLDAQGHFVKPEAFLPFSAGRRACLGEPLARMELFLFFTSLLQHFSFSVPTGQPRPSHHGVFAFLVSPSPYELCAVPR

CC/C(=C(/c1ccc(O)cc1)c1ccc(OCCN)cc1)c1ccc(O)cc1 [Compound 10, 4,4'-(1-(4-(2-Aminoethoxy)phenyl)but-1-ene-1,2-diyl)diphenol]
Potency against aromatase (CYP19) relative to norendoxifen ([1]; Ki 20.0 nM versus Ki […] nM): 4 fold
Selectivity toward CYP19 versus all other CYP P450 enzymes tested ([1]; other than CYP1A2, from Ki values): > 21 fold
IC50 (Recombinant CYP2A6): 6.73 ± 0.66 µM

CC/C(=C(/c1ccccc1)c1ccc(OCCN)cc1)c1ccccc1 [Compound 18, 2-(4-(1,2-Diphenylbut-1-en-1-yl)phenoxy)ethan-1-amine]
Percent ER competition, ER-α (recombinant human ER-α): 0% competition

CC(C)/C(=C(/c1ccc(O)cc1)c1ccc(OCCN)cc1)c1ccccc1 [Compound 29d, 4-(1-(4-(2-Aminoethoxy)phenyl)-3-methyl-2-phenylbut-1-enyl)phenol]
Percent ER competition, ER-α (recombinant human ER-α): 54% competition

N#CC/C(=C(/c1ccc(O)cc1)c1ccc(OCCN)cc1)c1ccccc1 [Compound 40, 4-(4-(2-Aminoethoxy)phenyl)-4-(4-hydroxyphenyl)-3-phenylbut-3-enenitrile]
Percent ER competition, ER-α (recombinant human ER-α): 48% competition

NCCOc1ccc(/C(=C(\Cn2ccnc2)c2ccccc2)c2ccc(O)cc2)cc1 [Compound 41, 4-(1-(4-(2-Aminoethoxy)phenyl)-3-(1H-imidazol-1-yl)-2-phenylprop-1-en-1-yl)phenol]
Percent ER competition, ER-α (recombinant human ER-α): 59% competition

CC/C(=C(/c1ccc(O)cc1)c1ccc(OCCO)cc1)c1ccccc1 [Compound 48, 4-(1-(4-(2-Hydroxyethoxy)phenyl)-2-phenylbut-1-en-1-yl)phenol]
Percent ER competition, ER-α (recombinant human ER-α): 62% competition

CC/C(=C(/c1ccc(O)cc1)c1ccc(OCC(=O)O)cc1)c1ccccc1 [Compound 49, 2-(4-(1-(4-Hydroxyphenyl)-2-phenylbut-1-en-1-yl)phenoxy)acetic Acid]
Percent ER competition, ER-α (recombinant human ER-α): 55% competition

CC/C(=C(/c1ccc(O)cc1)c1ccc(OCCBr)cc1)c1ccccc1 [Compound 50, 4-(1-(4-(2-Bromoethoxy)phenyl)-2-phenylbut-1-en-1-yl)phenol]
Percent ER competition, ER-α (recombinant human ER-α): 60% competition

CC/C(=C(/c1ccc(O)cc1)c1ccc(OCCCl)cc1)c1ccccc1 [Compound 55a, 4-(1-(4-(2-Chloroethoxy)phenyl)-2-phenylbut-1-en-1-yl)phenol]
Percent ER competition, ER-α (recombinant human ER-α): 62% competition

CC/C(=C(/c1ccc(O)cc1)c1ccc(OCCN)cc1)c1ccccc1 [Norendoxifen]
Recombinant CYP2D6 IC50 (nM) (Recombinant CYP2D6): No inhibition
Recombinant CYP2D6 Ki (nM) (Recombinant CYP2D6): No inhibition
